Data: patent publication US6525001B1, “Substituted pyrimidine and pyridine herbicides” (Mid-American Commercialization Corporation, priority 1997, dated 2003)

What was measured:
Type in all cases: in vivo
Design in all cases: key: 0 is no effect; 10 is complete control
[1] = tested on: duck salad (Heteranthera limosa); assay: Test B flood test
In short: (§1)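 Flood test on plants grown to the 2-leaf stage; treated plants kept in greenhouse twelve to sixteen days, then visually rated against controls on a 0 (no effect) to 10 (complete control) scale.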

[2] = tested on: bamyardgrass (Echinochloa crus-galli); assay: Test B flood test
In short: as §1

rice (Oryza sativa) = assay: Test B flood test
In short: as §1

[3] = tested on: smallflower flatsedge (Cyperus difformis); assay: Test B flood test
In short: as §1

[4] = tested on: pigweed (Amaranthus retroflexus); assay: Test B pre-/postemergence
In short: (§2)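 Scored visually 0 (none) to 10 (complete control) against untreated plants after twelve to sixteen greenhouse days. Test chemicals, formulated in surfactant-containing non-phytotoxic solvent, applied to soil after planting and, separately, onto 1- to 4-leaf (2–18 cm) plants.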

rape (Brassica napus) = assay: Test B pre-/postemergence
In short: as §2

[5] = tested on: velvetleaf (Abutilon theophrasti); assay: Test B pre-/postemergence
In short: as §2

[6] = tested on: cocklebur (Xanthium strumarium); assay: Test B pre-/postemergence; settings: for Cocklebur plant response rating: Preemergence
In short: as §2

[7] = tested on: purple nutsedge (Cyperus rotundus); assay: Test B pre-/postemergence
In short: as §2

[8] = tested on: sugar beet (Beta vulgaris); assay: Test B pre-/postemergence
In short: as §2

[9] = tested on: bedstraw (Galium aparine); assay: Test B pre-/postemergence; settings: for Bedstraw plant response rating: Preemergence
In short: as §2

wild oat (Avena fatua) = assay: Test B pre-/postemergence
In short: as §2

[10] = tested on: momingglory (Ipomoea hederacea); assay: Test B pre-/postemergence
In short: as §2

soybean (Glycine max) = assay: Test B pre-/postemergence
In short: as §2

[11] = tested on: blackgrass (Alopecurus myosuroides); assay: Test B pre-/postemergence; settings: for Blackgrass plant response rating: Preemergence
In short: as §2

[12] = tested on: broadleaf signalgrass (Brachiaria decumbens); assay: Test B pre-/postemergence; settings: for B. signalgrass plant response rating: Preemergence
In short: as §2

[13] = tested on: crabgrass (Digitaria sanguinalis); assay: Test B pre-/postemergence; settings: for Crabgrass plant response rating: Preemergence
In short: as §2

[14] = tested on: wheat (Triticum aestivum); assay: Test B pre-/postemergence
In short: as §2

corn (Zea mays) = assay: Test B pre-/postemergence; settings: for Corn plant response rating: Preemergence
In short: as §2

[15] = tested on: giant foxtail (Setaria faberii); assay: Test B pre-/postemergence
In short: as §2

[16] = Rate 62 g/ha, Postemergence (flood test)
[17] = Rate 125 g/ha, Postemergence, flood test
[18] = Rate 250 g/ha, Postemergence (flood test species)
[19] = Rate 125 g/ha, Postemergence section (flood test species)
[20] = Rate 250 g/ha, Postemergence (so in the source)

Cc1cnc(-c2ccc(F)cc2F)nc1Cc1cccc(C#N)c1 [Compound 34]
6: Plant response rating, Redroot pigweed ([4]; Rate 250 g/ha, Postemergence)
8: Plant response rating, Cocklebur ([6]; Rate 250 g/ha, Postemergence) | Plant response rating, Sugarbeets ([8]; Rate 62 g/ha, Postemergence) | Sugarbeets plant response rating ([8]; Rate 125 g/ha, Postemergence)
2: Plant response rating, S. Flatsedge [3, 16] | S. Flatsedge plant response rating [3, 19] | Plant response rating, Redroot pigweed [4, 20] | Plant response rating, Rape (rape (Brassica napus); Rate 62 g/ha, Postemergence) | Plant response rating, Cocklebur ([6]; Rate 62 g/ha, Postemergence) | Plant response rating, Cocklebur ([6]; Rate 125 g/ha, Postemergence) | Plant response rating, Bedstraw ([9]; Rate 62 g/ha, Postemergence) | Plant response rating, Wild oats (wild oat (Avena fatua); Rate 250 g/ha, Postemergence) | Plant response rating, Morningglory ([10]; Rate 250 g/ha, Postemergence) | Soybean plant response rating (soybean (Glycine max); Rate 125 g/ha, Postemergence) | Plant response rating, Soybean (soybean (Glycine max); Rate 250 g/ha, Postemergence)
7: Plant response rating, Bedstraw ([9]; Rate 250 g/ha, Postemergence)
9: Plant response rating, Sugarbeets ([8]; Rate 250 g/ha, Postemergence)
1: Plant response rating, Barnyardgrass [2, 18] | Plant response rating, Rice (rice (Oryza sativa); [16]) | Rice plant response rating (rice (Oryza sativa); [19]) | Plant response rating, Rice (rice (Oryza sativa); [18]) | Plant response rating, Redroot pigweed ([4]; Rate 62 g/ha, Postemergence) | Plant response rating, Velvetleaf ([5]; Rate 62 g/ha, Postemergence) | Velvetleaf plant response rating ([5]; Rate 125 g/ha, Postemergence) | Plant response rating, Velvetleaf ([5]; Rate 250 g/ha, Postemergence) | Wild oats plant response rating (wild oat (Avena fatua); Rate 125 g/ha, Postemergence) | Plant response rating, Morningglory ([10]; Rate 62 g/ha, Postemergence) | Morningglory plant response rating ([10]; Rate 125 g/ha, Postemergence) | Plant response rating, Soybean (soybean (Glycine max); Rate 62 g/ha, Postemergence) | Plant response rating, Blackgrass ([11]; Rate 125 g/ha, Postemergence) | Plant response rating, Blackgrass ([11]; Rate 250 g/ha, Postemergence) | Plant response rating, B. signalgrass ([12]; Rate 62 g/ha, Postemergence) | Plant response rating, B. signalgrass ([12]; Rate 125 g/ha, Postemergence) | Plant response rating, B. signalgrass ([12]; Rate 250 g/ha, Postemergence) | Plant response rating, B. signalgrass ([12]; Rate 250 g/ha, Postemergence as printed in head r139 (second section for compounds 26-50)) | Plant response rating, Crabgrass ([13]; Rate 125 g/ha, Postemergence) | Plant response rating, Crabgrass ([13]; Rate 250 g/ha, Postemergence) | Plant response rating, Crabgrass [13, 20] | Wheat plant response rating ([14]; Rate 125 g/ha, Postemergence) | Plant response rating, Wheat ([14]; Rate 250 g/ha, Postemergence) | Plant response rating, Corn (corn (Zea mays); Rate 62 g/ha, Postemergence) | Plant response rating, Corn (corn (Zea mays); Rate 125 g/ha, Postemergence) | Plant response rating, Corn (corn (Zea mays); Rate 250 g/ha, Postemergence) | Giant foxtail plant response rating ([15]; Rate 125 g/ha, Postemergence) | Plant response rating, Giant foxtail ([15]; Rate 250 g/ha, Postemergence) | Plant response rating, Giant foxtail [15, 20]
3: Plant response rating, S. Flatsedge [3, 18] | Redroot pigweed plant response rating ([4]; Rate 125 g/ha, Postemergence) | Rape plant response rating (rape (Brassica napus); Rate 125 g/ha, Postemergence) | Plant response rating, Rape (rape (Brassica napus); Rate 250 g/ha, Postemergence) | Plant response rating, Bedstraw ([9]; Rate 125 g/ha, Postemergence)
0: Plant response rating, Ducksalad [1, 16] | Plant response rating, Ducksalad [1, 17] | Plant response rating, Ducksalad [1, 18] | Plant response rating, Barnyardgrass [2, 16] | Plant response rating, Barnyardgrass [2, 17] | Redroot pigweed plant response rating ([4]; Rate 62 g/ha, Preemergence) | Redroot pigweed plant response rating ([4]; Rate 125 g/ha, Preemergence) | Rape plant response rating (rape (Brassica napus); Rate 62 g/ha, Preemergence) | Rape plant response rating (rape (Brassica napus); Rate 125 g/ha, Preemergence) | Plant response rating, Rape (rape (Brassica napus); [20]) | Velvetleaf plant response rating ([5]; Rate 62 g/ha, Preemergence) | Plant response rating, Velvetleaf ([5]; Rate 125 g/ha, Preemergence) | Plant response rating, Velvetleaf [5, 20] | Cocklebur plant response rating ([6]; Rate 62 g/ha) | Cocklebur plant response rating ([6]; Rate 125 g/ha) | Plant response rating, Cocklebur [6, 20] | Plant response rating, Nutsedge ([7]; Rate 62 g/ha, Postemergence) | Nutsedge plant response rating ([7]; Rate 62 g/ha, Preemergence) | Nutsedge plant response rating ([7]; Rate 125 g/ha, Postemergence) | Nutsedge plant response rating ([7]; Rate 125 g/ha, Preemergence) | Plant response rating, Nutsedge ([7]; Rate 250 g/ha, Postemergence) | Plant response rating, Nutsedge [7, 20] | Sugarbeets plant response rating ([8]; Rate 62 g/ha, Preemergence) | Plant response rating, Sugarbeets ([8]; Rate 125 g/ha, Preemergence) | Plant response rating, Sugarbeets [8, 20] | Bedstraw plant response rating ([9]; Rate 62 g/ha) | Bedstraw plant response rating ([9]; Rate 125 g/ha) | Plant response rating, Bedstraw [9, 20] | Wild oats plant response rating (wild oat (Avena fatua); Rate 62 g/ha, Postemergence) | Wild oats plant response rating (wild oat (Avena fatua); Rate 62 g/ha, Preemergence) | Plant response rating, Wild oats (wild oat (Avena fatua); Rate 125 g/ha, Preemergence) | Plant response rating, Wild oats (wild oat (Avena fatua); [20]) | Morningglory plant response rating ([10]; Rate 62 g/ha, Preemergence) | Morningglory plant response rating ([10]; Rate 125 g/ha, Preemergence) | Plant response rating, Morningglory [10, 20] | Soybean plant response rating (soybean (Glycine max); Rate 62 g/ha, Preemergence) | Plant response rating, Soybean (soybean (Glycine max); Rate 125 g/ha, Preemergence) | Plant response rating, Soybean (soybean (Glycine max); [20]) | Plant response rating, Blackgrass ([11]; Rate 62 g/ha, Postemergence) | Blackgrass plant response rating ([11]; Rate 62 g/ha) | Blackgrass plant response rating ([11]; Rate 125 g/ha) | Plant response rating, Blackgrass [11, 20] | B. signalgrass plant response rating ([12]; Rate 62 g/ha) | B. signalgrass plant response rating ([12]; Rate 125 g/ha) | Plant response rating, Crabgrass ([13]; Rate 62 g/ha, Postemergence) | Crabgrass plant response rating ([13]; Rate 62 g/ha) | Crabgrass plant response rating ([13]; Rate 125 g/ha) | Wheat plant response rating ([14]; Rate 62 g/ha, Postemergence) | Wheat plant response rating ([14]; Rate 62 g/ha, Preemergence) | Plant response rating, Wheat ([14]; Rate 125 g/ha, Preemergence) | Plant response rating, Wheat [14, 20] | Corn plant response rating (corn (Zea mays); Rate 62 g/ha) | Corn plant response rating (corn (Zea mays); Rate 125 g/ha) | Plant response rating, Corn (corn (Zea mays); [20]) | Plant response rating, Giant foxtail ([15]; Rate 62 g/ha, Postemergence) | Giant foxtail plant response rating ([15]; Rate 62 g/ha, Preemergence) | Giant foxtail plant response rating ([15]; Rate 125 g/ha, Preemergence)
